Assay results published in patent US20220002288A1, “MONOBACTAM COMPOUNDS AND USE THEREFOR” (priority 2018, published 2022).
Where a name gives a salt, the structure may show the parent alone.

Experiments:
[1] = system: Acinetobacter baumannii, Pseudomonas aeruginosa, and Escherichia coli; assay: In vitro antibacterial activity, summary statements over all strains of Experimental Example 1; format: cell-based; details: method of Experimental Example 1
Protocol: (§1) Compounds: The compounds prepared in the above examples and comparative examples. All test compounds were dissolved and diluted with DMSO, and the final concentrations were prepared as 64, 32, 16, 8, 4, 2, 1, 0.5, 0.25, 0.125, 0.0625 μg/mL in the experiment.
(§2) Bacterial strains: 6 strains of Acinetobacter baumannii (codenames: HDBAB-YK4, HDBAB-YK7, HDBAB-YK12, HDBAB-YK16, HDBAB_OXA_7, ATCC 19606), 2 strains of Pseudomonas aeruginosa (codenames: HDBPA-YK9, HDBPA)-YK15), 1 strain of Escherichia coli (codename: CLB30048), all provided by HD Biosciences (Shanghai) Co., Ltd.
The minimum inhibitory concentration (MIC) of each compound was recorded according to the guidelines of the Clinical and Laboratory Standards Institute.

[2] = system: Pseudomonas aeruginosa; assay: In vitro antibacterial activity, minimum inhibitory concentration (MIC); format: cell-based
Protocol: as §1, §2
(§3) Medium: Trypticase soy agar (TSA) (BD BBL 211043), and Cation-adjusted Mueller Hinton broth (CAMHB) (BD BBL212322).
(§4) The bacteria used for the minimum inhibitory concentration (MIC) test were stored frozen at −80° C., and needed 2 days to recover before use. A small amount of frozen bacteria was scraped with a sterile inoculation loop for streak inoculation on a TSA solid medium petri dish. The dish was placed in an ordinary incubator at 35±2° C. for 20-24 hours. 5-10 Colonies with similar morphologies were picked from the above-mentioned petri dish with a sterile inoculating loop for streak inoculation again on a TSA solid medium petri dish. The dish was then placed in an ordinary incubator at 35±2° C. for 20-24 hours.
(§5) 1.02×CAMHB liquid medium was taken out from a 4° C. refrigerator and placed at room temperature for preheating. 5-10 Individual bacterial colonies were picked from the solid petri dish of the above Section 2.1 and re-suspended in 500 μL of 0.9% NaCl, and then the OD600 was adjusted to 0.1-0.15 with a spectrophotometer. Then the bacteria were diluted 400 times with 1.02×CAMHB (two-step dilution method: firstly diluting 10 times, then diluting 40 times).
(§6) The number of inoculated bacteria can be obtained by counting the colonies on the petri dish (see Section 2.4).
(§7) One compound was arranged in each row of a 96-well test plate: the highest test concentration for each compound was 64 μg/mL, which was diluted by a factor of two.
(§8) Growth control (GC): 1.02×CAMHB and dimethyl sulfoxide (DMSO) containing bacterial inoculum, no compound.
(§9) Sterile control (SC): Containing 1.02×CAMHB and DMSO, no compound.
(§10) All test compounds were dissolved and diluted with DMSO. 50 μL of 3.2 mg/mL of each test compound was transferred to the initial well (A1-H1) of the dilution plate, and then 25 μL of DMSO was transferred to other wells. The test compounds were sequentially diluted by a factor of 2 from column 1 to column 11 (i.e. drawing 25 μL of test compound from column 1 to column 2 and mixing well, and then drawing 25 μL of test compound from column 2 to column 3 and mixing well, and then drawing 25 μL of test compound from column 3 to column 4 and mixing well, and so on, until diluting to column 11).
(§11) 2 μL of the compound was transferred from the compound plate to the corresponding well of the test plate. Meanwhile, 2 μL of 100% DMSO was transferred to the compound-free wells (the GC and SC wells).
(§12) 98 μL of the corresponding bacterial inoculum was added to the test plate (except for the SC well).
(§13) 98 μL of 1.02×CAMHB medium was added to the SC well of the test plate.
(§14) After the system was added, the test plate was covered with a sterile lid, centrifuged at 800 rpm for 30 seconds, then shaken on a plate shaker at 400 rpm for 1 minute for mixing well, and then placed in an incubator at 35±2° C. for 20 hours.
(§15) The inoculated bacteria were gradient diluted by 10 folds with the liquid medium, from 10^−1 to 10^−3. 100 μL of the above bacterial dilution was spread evenly on a TSA petri dish, 2 replicates for each dilution. After the medium was absorbed by TSA for 10 minutes, the petri dishes were reversed and incubated in an incubator at 35±2° C. for 24 hours.
(§16) A compound management system was turned on to check whether the barcode and compound arrangement of each test plate were correct. […]

[3] = system: Acinetobacter baumannii; assay: as above; format: cell-based
Protocol: as §1, §2, §3, §4, §5, §6, §7, §8, §9, §10, §11, §12, §13, §14, §15, §16

[4] = system: Escherichia coli; assay: as above; format: cell-based; details: strain CLB30048, read-out: MIC
Protocol: as §1, §2, §3, §4, §5, §6, §7, §8, §9, §10, §11, §12, §13, §14, §15, §16

[5] = Pharmacokinetics of the compounds in mice; format: in vivo, BALB/c mice
Description: Animals: male BALB/c mice, SPF grade, purchased from Changzhou Cavens Experimental Animal Co., Ltd.; 16-24 g, license number: SCXK (Su)2016-0010; 2 to 3 days of adaptation period were given before the experiment.
Instruments: API 4500 High Performance Liquid Chromatograph Coupled Triple Quadrupole Mass Spectrometer, and Analyst QS A01.01 Chromatography Workstation were both purchased from AB SCIEX of the United States; Milli-Q ultrapure water device was purchased from Millipore; CF16R XII desktop high-speed refrigerated centrifuge was purchased From Hitachi Company; Qilinbeier Vortex-5 oscillator was purchased from IKA Company of German; electric heating constant-temperature water bath was purchased from Changzhou Guohua Electric Appliance Co., Ltd.; electric pipette was purchased from Thermo Company of American; and microanalysis balance was purchased from Shanghai Mettler Co., Ltd.
2 mg of the test compound was weighed, added to physiological saline, vortexed for 2 min, and ultrasonicated for 3 min, to prepare a test solution with a concentration of 0.2 mg/mL for intravenous administration.
A single dose of 2 mg/kg of the test compound was administered to BALB/c mice via the tail vein, the dose volume being 0.1 mL/10 g. At 5 min, 15 min, 30 min, 1 h, 2 h, 4 h after administration, blood samples were collected from the orbital venous plexus into heparinized EP tubes (0.6 mL), which were temporarily placed on crushed ice.
The samples were centrifuged at 8000 rpm for 5 min. 15 μL of upper plasma were transferred to a 96-well plate. 150 μL of methanol:acetonitrile (v/v=1:1) (containing 20 ng/mL tolbutamide) was added to 15 μL of plasma, shaken for 3 min, and centrifuged at 4500 rpm for 5 min. 100 μL of supernatant was taken to a 2 mL deep well plate. 100 μL of diluent (pure water) was added. The samples were shaken for 3 min, and centrifuged at 4500 rpm for 5 min. 180 μL of the supernatant was transferred to the sample plate. The content of the compound in the supernatant sample was analyzed by LC-MS/MS, and various pharmacokinetic parameters were calculated with WinNonlin software.

[6] = mouse, male BALB/c mice, single intravenous dose 2 mg/kg, plasma

With `CC1(C)[C@H](NC(=O)/C(=N\O[C@@H](COc2ccc(C(=O)Nc3cn(CCCN)[n+](CC4CNC4)c3)cc2)C(=O)O)c2csc(N)n2)C(=O)N1OS(=O)(=O)[O-]` [Example 1, (S)-3-((Z)-2-(((S)-2-(4-((1-(3-aminopropyl)-2-(azetidin-3-ylmethyl)-1H-pyrazol-2-ium-4-yl)carbamoyl)phenoxy)-1-carboxyethoxy)imino)-2-(2-aminothiazol-4-yl)acetylamino)-2,2-dimethyl-4-oxoazetidin-1-yl Sulfate] the “in vitro antibacterial activity (in words)” value [1] was “excellent antibacterial activity”, the MIC ([2]; strain HDBPA-YK9) was 2 µg/mL and the MIC ([2]; strain HDBPA-YK15) was 32 µg/mL. It also gave an MIC ([3]; ATCC19606, strain ATCC 19606) of 2 µg/mL, an MIC ([3]; strain HDBAB-YK4) of 2 µg/mL and an MIC ([3]; strain HDBAB-YK7) of 0.25 µg/mL. The MIC ([3]; strain HDBAB-YK12) was 2 µg/mL, the MIC ([3]; strain HDBAB-YK16) was 8 µg/mL and the MIC ([3]; strain HDBAB_OXA_7) was 4 µg/mL. For the same compound, the MIC [4] was 2 µg/mL, the “blood concentration (CO)” value ([5]; intravenous dose of 2 mg/kg) was 11548 ng/mL and the Vd ([5]; male, BALB/c, mouse, plasma, iv, 2 mg/kg, male BALB/c mice, single intravenous dose 2 mg/kg, plasma, read-out: VSS) was 0.25 L/kg. The AUC(0-inf) [5, 6] was 3180 ng·h/mL, the AUC(0-t) [5, 6] was 3140 ng·h/mL and the C0 [5, 6] was 11500 ng/mL. It also gave a clearance [5, 6] of 10.8 mL/min/kg and a half-life [5, 6] of 20.4 min.
